Laboratory results: patent US20220098203A1 (priority 2018, published 2022)
Read-outs that look alike come from different tables or passages of the source.

Experiments:
HCT116 MTAP-/- = assay: Inhibition of cellular proliferation (Cell Titer Glo), HCT116 MTAP-/-; type: cell-based, human; conditions: 4 days, read-out: 4 Day Relative Growth Inhibition (MTAP −/−)
Procedure, shortened: (§1)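 Isogenic HCT116 MTAP+/+ and MTAP−/− cells were plated, treated with MAT2A inhibitor after 24 h, and incubated 4 days at 37 °C. Proliferation was read by CellTiter-Glo ATP luminescence, blank-subtracted and normalized to 0.2% DMSO control.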

[1] = test system: SAM in HCT116 MTAP-deleted cells; assay: Cellular assay of target engagement (SAM), LC-MS/MS; type: cell-based, human; conditions: 72 h, read-out: Cell 72 h SAM Inhibition (MTAP −/−)
Procedure, shortened: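 HCT116 cells with MTAP deleted were treated with compound for 72 h at 37°C/5% CO2. After quenching lysis in cold 80% methanol with 1 M acetic acid, SAM was quantified by LC-MS/MS against a d3-SAM internal standard.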

MAT2A homodimer = molecular target: T1, MAT2A homodimer (Homo sapiens, UniProt P31153); assay: MAT2A biochemical assay (liberated phosphate, PiColorLock Gold); conditions: Table 5a; MAT2A biochemical assay; read-out: Enzyme Inhibition
T1 construct: inferred from the Ni sepharose purification and imidazole elution; made in house; host or cells: SF9 insect cells, recombinant baculovirus (Bac to Bac, pFASTBAC1)
Procedure, shortened: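 Baculovirus/Sf9-expressed, Ni-purified MAT2A homodimer preincubated with compound 60 min at 25 °C, then reacted 60 min at 25 °C with substrate mix of 500 μM ATP and 400 μM L-methionine, pH 7.0 (mix, not final levels). Phosphate released with SAM measured by PiColorLock Gold against phosphate standard curve.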

HCT116 MTAP+/+ = assay: Inhibition of cellular proliferation (Cell Titer Glo), HCT116 MTAP+/+; type: cell-based; conditions: Homo sapiens, HCT-116, 96 h, Table 5a, 4 days, read-out: 4 Day Relative Growth Inhibition (MTAP +/+)
Procedure, shortened: as §1

[2] = Homo sapiens, HCT-116, 96 h, Table 5a
[3] = Homo sapiens, HCT-116, Table 5a
[4] = Table 6, select pairs of compounds

T1 sequence (P31153 whole entry): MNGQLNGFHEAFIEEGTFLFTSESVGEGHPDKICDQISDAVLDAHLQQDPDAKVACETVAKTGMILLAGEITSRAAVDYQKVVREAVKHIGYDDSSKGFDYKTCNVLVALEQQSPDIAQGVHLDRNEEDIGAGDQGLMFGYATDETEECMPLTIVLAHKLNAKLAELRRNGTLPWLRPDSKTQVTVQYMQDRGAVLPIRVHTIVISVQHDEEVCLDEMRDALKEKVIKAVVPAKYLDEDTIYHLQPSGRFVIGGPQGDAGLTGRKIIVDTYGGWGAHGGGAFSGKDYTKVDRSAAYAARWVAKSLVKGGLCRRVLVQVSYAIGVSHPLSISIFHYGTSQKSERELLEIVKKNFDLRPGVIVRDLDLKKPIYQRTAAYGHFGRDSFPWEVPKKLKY

IC50 (HCT116 MTAP-/-; [2]) [µM]	IC50 [1, 3] [µM]	IC50 (MAT2A homodimer) [µM]	IC50 (HCT116 MTAP+/+) [µM]	IC50 (HCT116 MTAP-/-; [4]) [µM]	IC50 [1, 4] [µM]	SMILES
< 0.1	< 0.1	< 0.1	> 1	–	–	COc1ccc(N2C(=O)N(c3ccc4ncn(C)c4c3)Cc3ccc(OCC(F)F)nc32)cc1 [Example 139, 7-(2,2-difluoroethoxy)-1-(4-methoxyphenyl)-3-(1-methyl-1H-benzo[d]imidazol-6-yl)-3,4-dihydropyrido[2,3-d]pyrimidin-2(1H)-one]
0.1 to 1	0.1 to 1	0.1 to 1	> 1	–	–	COc1ccc(N2Cc3cnc(NCC(F)(F)F)nc3N(c3ccc(CO)cc3)C2=O)cc1 [Example 202, 1-(4-(hydroxymethyl)phenyl)-3-(4-methoxyphenyl)-7-((2,2,2-trifluoroethyl)amino)-3,4-dihydropyrimido[4,5-d]pyrimidin-2(1H)-one]
0.1 to 1	0.1 to 1	< 0.1	> 1	–	–	CCOc1ccc2c(n1)N(c1ccc(OC(F)F)cc1)C(=O)N(c1ccc3ncccc3c1)C2 [Example 112, 1-(4-(difluoromethoxy)phenyl)-7-ethoxy-3-(quinolin-6-yl)-3,4-dihydropyrido[2,3-d]pyrimidin-2(1H)-one]
< 0.1	< 0.1	< 0.1	> 1	–	–	[2H]C([2H])([2H])Oc1ccc(N2C(=O)N(c3ccc4nn(C)cc4c3)Cc3c(NC)nc(NCC(F)(F)F)nc32)cc1 [Example 432, 1-(4-(methoxy-d3)phenyl)-3-(2-methyl-2H-indazol-5-yl)-5-(methylamino)-7-((2,2,2-trifluoroethyl)amino)-3,4-dihydropyrimido[4,5-d]pyrimidin-2(1H)-one]
0.1 to 1	0.1 to 1	< 0.1	> 1	–	–	CCOc1ccc2c(n1)N(c1ccc(OC)cc1)C(=O)N(c1ccc3c(c1)N(C)CCO3)C2 [Example 122, 7-ethoxy-1-(4-methoxyphenyl)-3-(4-methyl-3,4-dihydro-2H-benzo[b][1,4]oxazin-6-yl)-3,4-dihydropyrido[2,3-d]pyrimidin-2(1H)-one]
0.1 to 1	0.1 to 1	< 0.1	> 1	–	–	COc1ccc(N2Cc3cnc(NCC(F)F)nc3N(c3ccc(-c4nc[nH]n4)cc3)C2=O)cc1 [Example 188, 1-(4-(1H-1,2,4-triazol-3-yl)phenyl)-7-((2,2-difluoroethyl)amino)-3-(4-methoxyphenyl)-3,4-dihydropyrimido[4,5-d]pyrimidin-2(1H)-one]
> 1	0.1 to 1	0.1 to 1	> 1	–	–	COc1ccc(N2Cc3cnc(NCC(F)(F)F)nc3N(c3ccc(Cl)cc3)C2=O)cc1 [Example 252, 1-(4-chlorophenyl)-3-(4-methoxyphenyl)-7-((2,2,2-trifluoroethyl)amino)-3,4-dihydropyrimido[4,5-d]pyrimidin-2(1H)-one]
0.1 to 1	0.1 to 1	< 0.1	> 1	–	–	Cn1cc2cc(N3Cc4cc(F)c(OCC(F)F)cc4N(c4ccc(OC(F)F)cc4)C3=O)ccc2n1 [Example 285, 7-(2,2-difluoroethoxy)-1-(4-(difluoromethoxy)phenyl)-6-fluoro-3-(2-methyl-2H-indazol-5-yl)-3,4-dihydroquinazolin-2(1H)-one]
0.1 to 1	< 0.1	< 0.1	> 1	–	–	CCOc1ccc2c(n1)N(c1ccc(OC(F)F)cc1)C(=O)N(c1ccn3nccc3c1)C2 [Example 106, 1-(4-(difluoromethoxy)phenyl)-7-ethoxy-3-(pyrazolo[1,5-a]pyridin-5-yl)-3,4-dihydropyrido[2,3-d]pyrimidin-2(1H)-one]
0.1 to 1	0.1 to 1	< 0.1	> 1	0.1 to 1	0.1 to 1	CCSc1ccc2c(n1)N(c1ccc(OC)cc1)C(=O)N(c1ccc3nn(C)cc3c1)C2 [Example 132, 7-(ethylthio)-1-(4-methoxyphenyl)-3-(2-methyl-2H-indazol-5-yl)-3,4-dihydropyrido[2,3-d]pyrimidin-2(1H)-one]
< 0.1	< 0.1	< 0.1	> 1	–	–	COc1ccc(N2C(=O)N(c3ccc4nn(C)cc4c3)Cc3cnc(NCC(F)(F)F)nc32)cc1 [Example 422, 1-(4-methoxyphenyl)-3-(2-methyl-2H-indazol-5-yl)-7-((2,2,2-trifluoroethyl)amino)-3,4-dihydropyrimido[4,5-d]pyrimidin2(1H)-one]
< 0.1	< 0.1	< 0.1	> 1	–	–	[2H]C([2H])([2H])Oc1ccc(N2C(=O)N(c3ccc4nc(C)n(C)c4c3)Cc3ccc(OCC(F)F)nc32)cc1 [Example 401, 7-(2,2-difluoroethoxy)-3-(1,2-dimethyl-1H-benzo[d]imidazol-6-yl)-1-(4-(methoxy-d3)phenyl)-3,4-dihydropyrido[2,3-d]pyrimidin-2(1H)-one]
> 1	> 1	0.1 to 1	> 1	–	–	CCOc1cnc2c(c1)N(c1ccc(OC(F)F)cc1)C(=O)N(c1ccc(OC)cc1)C2 [Example 289, 1-(4-(difluoromethoxy)phenyl)-7-ethoxy-3-(4-methoxyphenyl)-3,4-dihydropyrido[3,2-d]pyrimidin-2(1H)-one]
< 0.1	< 0.1	< 0.1	0.1 to 1	–	–	[2H]C([2H])([2H])Oc1ccc(N2C(=O)N(c3ccc4nn(C)c(C)c4c3)Cc3ccc(OCC(F)F)nc32)cc1 [Example 105, 7-(2,2-difluoroethoxy)-3-(2,3-dimethyl-2H-indazol-5-yl)-1-(4-(methoxy-d3)phenyl)-3,4-dihydropyrido[2,3-d]pyrimidin-2(1H)-one]
